In patent US7169761B2, “Azulene derivatives and salts thereof” (Astellas Pharma Inc., priority 2002, dated 2007):

Assays:
human SGLT2 = target: T1, human SGLT2 (Homo sapiens, UniProt P31639); assay: Inhibition of human Na+-glucose cotransporter (human SGLT2) activity: methyl-α-D-glucopyranoside intake in CHO cells stably expressing human SGLT2; type: cell-based; details: inhibition of methyl-α-D-(U-14C)glucopyranoside intake, CHO cells stably expressing human SGLT2, 37° C., two hours
T1 construct: expressed in transfected cells; host or cells: CHO-K1
T1 sequence (P31639 1-672): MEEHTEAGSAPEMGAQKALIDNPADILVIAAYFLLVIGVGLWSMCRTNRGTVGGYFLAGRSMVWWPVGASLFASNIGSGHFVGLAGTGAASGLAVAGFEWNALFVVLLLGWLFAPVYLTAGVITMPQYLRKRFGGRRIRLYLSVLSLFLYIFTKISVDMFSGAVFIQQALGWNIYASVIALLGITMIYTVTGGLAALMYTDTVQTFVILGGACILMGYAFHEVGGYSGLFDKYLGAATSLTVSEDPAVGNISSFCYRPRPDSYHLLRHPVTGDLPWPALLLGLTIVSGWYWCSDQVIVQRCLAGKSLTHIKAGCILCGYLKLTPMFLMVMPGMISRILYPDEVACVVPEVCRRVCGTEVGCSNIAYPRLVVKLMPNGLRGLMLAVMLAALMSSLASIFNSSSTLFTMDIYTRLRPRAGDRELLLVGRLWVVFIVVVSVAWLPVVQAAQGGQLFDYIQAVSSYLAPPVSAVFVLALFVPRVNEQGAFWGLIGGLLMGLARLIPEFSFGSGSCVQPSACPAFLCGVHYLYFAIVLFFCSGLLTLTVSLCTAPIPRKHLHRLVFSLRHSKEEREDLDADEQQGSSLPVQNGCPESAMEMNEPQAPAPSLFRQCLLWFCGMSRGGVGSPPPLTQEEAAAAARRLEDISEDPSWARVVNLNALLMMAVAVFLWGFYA
Description: [Inhibition of Human Na^+-Glucose Cotransporter (Human SGLT2) Activity]
(1) Preparation of Human SGLT 2 Expression Vector
First, single-strand cDNA was reversely transcripted from total RNA originating from the human kidney (manufactured by BD Biosciences Clontech) using a Superscript II (manufactured by Invitrogen Corporation) and a random hexamer. Second, using the cDNA as a template, a DNA fragment encoding a human SGLT2 (Wells, R. G. et al., Am. J. Physiol., 1992, 263(3) F459) was amplified by the PCR reaction using Pyrobest DNA polymerase (manufactured by Takara Bio Inc.). That is, a Hind III site and an EcoRI site were inserted into the 5′ side and the 3′ side of the DNA fragment, respectively by using primers.
The amplified fragment was cloned into a pCR2.1-Topo vector using a Topo TA Cloning Kit (manufactured by Invitrogen Corporation) and the cloned vector was transfected into a competent cell of Escherichia coli JM109. Ampicillin-resistant clones were cultured in a LB medium containing ampicillin (100 mg/l). A plasmid was purified from the cultured Escherichia coli using the method of Hanahan (see Maniatis et al., “Molecular Cloning”). A DNA fragment for encoding a human SGLT2 was obtained by the Hind III/EcoRI digestion of the plasmid and ligated and cloned to the same site of the expression vector pcDNA 3.1 (manufactured by Invitrogen Corporation) using a DNA ligase (manufactured by Roche Diagnostics). The ligated clone was transfected into a competent cell of Escherichia coli JM109 in the same manner as described above and cultured in a LB medium containing ampicillin, and a human SGLT2 expression vector was obtained using the method of Hanahan.
(2) Preparation of Human SGLT2 Expressed Cells
The human SGLT2 expression vector was transfected into a CHO-K1 cell using Lipofectamine2000 (manufactured by Invitrogen Corporation). The cell was cultured in a Ham's F12 medium (manufactured by Nissui Pharmaceutical Co., Ltd.) containing penicillin (50 IU/ml, manufactured by Dainippon Pharmaceutical Co., Ltd.), streptomycin (50 μg/ml, manufactured by Dainippon Pharmaceutical Co., Ltd.), Geneticin (40 μg/ml, manufactured by Invitrogen Corporation), and 10% fetal bovine serum in the presence of 5% CO2 at 37° C. for two weeks, and Geneticin-resistant clones were obtained.
(3) Inhibition of Methyl-α-D-Glucopyranoside Intake
After removing the medium of a CHO cell which stably expresses the human SGLT2, a pretreatment buffer solution (buffer solution of pH 7.4 containing choline chloride (140 mM), potassium chloride (2 mM), calcium chloride (1 mM), magnesium chloride (1 mM), 2-[4-(2-hydroxyethyl)1-piperazinyl]ethanesulfonic acid (10 mM), and tris(hydroxymethyl) aminomethane (5 mM)) was added in the amount of 100 μl per well, and incubated at 37° C. for 20 minutes.
11 μl of methyl-α-D-(U-14C) glucopyranoside (manufactured by Amersham Pharmacia Biotech) was mixed with 1,000 μl of a buffer solution for intake containing a test compound (buffer solution of pH 7.4 containing sodium chloride (140 mM), potassium chloride (2 mM), calcium chloride (1 mM), magnesium chloride (1 mM), methyl-α-D-glucopyranoside (50 μM), 2-[4-(2-hydroxyethyl)1-piperazinyl]ethanesulfonic acid (10 mM), and tris(hydroxymethyl)aminomethane (5 mM)) to prepare a buffer solution for intake. A buffer solution for intake without a test compound was prepared for a control group. A buffer solution for basal intake without a test compound containing coline chloride (140 mM) instead of sodium chloride for measuring the basal intake was prepared as well.
After removing the pretreatment buffer solution, the buffer solution for intake was added (25 μl per well) and incubated at 37° C. for two hours. […]

[1] = tested on: blood glucose of KK-A^y mice; assay: Hypoglycemic activity confirmation test in fed KK-Ay mice; type: in vivo, mouse; details: rate of decrease in blood glucose AUC 0–8 hours vs control group; fed male KK-A^y mice, oral, 3 mg/10 ml suspension at 10 ml/kg
Procedure: [Hypoglycemic Activity Confirmation Test]
Fed KK-A^y mice (CLEA Japan, Inc., male) were used. The test compound was suspended in 0.5% methylcellulose solution to a concentration of 3 mg/10 ml. The weight of each mouse was measured. The test compound suspension was orally administered forcibly to the mice at a dose of 10 ml/kg. Only 0.5% methylcellulose solution was administered to the mice of a control group. Each group consisted of six mice. Blood was collected from the tail vein immediately before administering the compound and one, two, four, and eight hours after administering the compound. The blood glucose value was measured using a glucose CII Test Wako (manufactured by Wako Pure Chemical Industries, Ltd.). The intensity of hypoglycemic activity was determined by calculating the area under the blood glucose value-time curve (AUC) using a trapezoidal method from the glucose value of 0–8 hours after administering the compound and calculating the rate (%) of the decrease in the AUC of the drug-administered group from that of the control group.

Row | IC50 (human SGLT2) | Structure (SMILES) | Hypoglycemic activity [1]
1 | 5.7 nM | COc1cc(OC)c([C@@H]2O[C@H](CO)[C@@H](O)[C@H](O)[C@H]2O)cc1Cc1cc2cccccc-2c1 [Example 60, (1S)-1,5-anhydro-1-[5-(azulen-2-ylmethyl)-2,4-dimethoxyphenyl]-D-glucitol] | 45%
2 | 22 nM | OC[C@H]1O[C@@H](c2cccc(Cc3cc4cccccc-4c3)c2)[C@H](O)[C@@H](O)[C@@H]1O [Example 25] | –
3 | 29 nM | Cc1ccc(Cc2cc3cccccc-3c2)cc1[C@@H]1O[C@H](CO)[C@@H](O)[C@H](O)[C@H]1O [Example 11] | –
4 | 16 nM | CCOc1ccc(Cc2cc3cccccc-3c2)cc1[C@@H]1O[C@H](CO)[C@@H](O)[C@H](O)[C@H]1O [Example 7, (1S)-1,5-anhydro-1-[5-(azulen-2-ylmethyl)-2-ethoxyphenyl]-D-glucitol] | –
5 | 8.9 nM | OC[C@H]1O[C@@H](c2cc(Cc3cc4cccccc-4c3)ccc2O)[C@H](O)[C@@H](O)[C@@H]1O [Example 75, (1S)-1,5-anhydro-1-[5-(azulen-2-ylmethyl)-2-hydroxyphenyl]-D-glucitol] | –
6 | 16 nM | COc1ccc(Cc2cc3cccccc-3c2)cc1[C@@H]1O[C@H](CO)[C@@H](O)[C@H](O)[C@H]1O [Example 28] | 46%
7 | 99 nM | OC[C@H]1O[C@@H](c2cccc(Cc3ccc4cccc-4cc3)c2)[C@H](O)[C@@H](O)[C@@H]1O [Example 21] | –
